9 compounds from PubChem BioAssay AID1919003 (Molecular Pharmacology Branch, DTP, NCI, 2023) can be followed below.

This assay deals with 786-0 complex spheroids with HUVEC/MSC, growth % test/control. The assay is described as follows: Anticancer human tumor 786-0 cell line growth inhibition [AhR].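 As to all read-outs here: compound exposure lasted seven days before the read-out.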 The conditions noted are these: for viability, T/C: stronger effect = lower value; for IC50: curve of compound. The text has this:
Multicellular complex tumor spheroid response to aryl hydrocarbon receptor antagonists in combination with a variety of drugs and investigational agents in selected tumor cell lines
The current study was undertaken to assess response to aryl hydrocarbon receptor antagonists in combination with standard-of-care drugs and investigational agents in solid tumor complex spheroid models. Complex spheroids include a stromal component modeled by human endothelial cells (HUVEC) and fibroblasts modeled by human mesenchymal stem cells (MSCs). The concentration ranges selected for each drug and investigational agent were based upon clinically achievable concentrations if the clinical Cmax of the agent was known.
Compounds. The drugs and investigational agents: BAY 2416964 (NSC825713), GNF351 (NSC835774), CH-223191 (NSC835775), CPI-455 (NSC825282), aza-TdCyd (NSC777586), decitabine (NSC127716), belinostat (NSC758774), entinostat (NSC756642), pevonedistat (NSC761192), tazemetostat (NSC777109), talazoparib (NSC765396), olaparib (NSC753686), selinexor (NSC780203), nedisertib (M3814, NSC802822), bortezomib (NSC756655), venetoclax (NSC766270), doxorubicin (NSC123127), elimusertib (BAY189344, NSC800525), ceralasertib (AZD6738, NSC777638), TAK-243 (NSC785004), alisertib (NSC759677), etoposide (NSC141540), topotecan (NSC609699), eribulin (NSC707389), gemcitabine (NSC613327), carboplatin (NSC241240), cisplatin (NSC119875), and SN-38 (NSC673596) were obtained from the National Cancer Institute (NCI) Developmental Therapeutics Program Chemical Repository (32). The FDA-approved anticancer drug set is available from the Developmental Therapeutics Program at https://dtp.cancer.gov/organization/dscb/obtaining/available plates.htm. […] The stock solutions were prepared in dimethyl sulfoxide (DMSO, Sigma-Aldrich, St. Louis, MO, cat. D2650), except for the platinum compounds which were prepared in saline (Quality Biological, Gaithersburg, MD, cat. 114-055-101), at 800-fold the tested concentration and stored at -70 degrees C prior to their use. All drugs and investigational agents were tested over a range starting from a high concentration at or near the clinical Cmax and decreasing in half-log increments. If the clinical Cmax for an agent had not been determined, the highest concentration tested was 10 microM (Table 1).
Cell Culture. All cells were maintained in an incubator at 37 degrees C and 5% CO2 with 95% humidity. The PDC lines were cultured according to standard operating procedures established by the NCI PDMR (https://pdmr.cancer.gov). Briefly, all PDCs were thawed and cultured in Matrigel-coated flasks prepared with a working solution of 1X Ham's F-12 nutrient mix, without supplementation (Invitrogen, Waltham, MA, cat. 11765054), 100 U/mL penicillin-streptomycin (Invitrogen, cat. 15140122), and 2.5% Matrigel (Corning Inc., Corning, NY, cat. 354248) for the first three passages. All PDCs were cultured in complete DMEM/F-12 media containing advanced DMEM/F-12 (Invitrogen, cat. 12634028), 4.9% defined fetal bovine serum, heat inactivated (HyClone Laboratories Inc., Logan, UT, cat. SH30070.03HI), 389 ng/mL hydrocortisone (Sigma-Aldrich, cat. H4001), 9.7 ng/mL human EGF recombinant protein (Invitrogen, cat. PHG0313), 23.4 microg/mL adenine (Sigma-Aldrich, cat. A2786), 97.3 U/mL penicillin-streptomycin (Invitrogen, cat. 15140122), 1.9 mM L-glutamine (Invitrogen, cat. 25030081), and 9.7 microM Y-27632 dihydrochloride (Tocris Bioscience, Bristol, United Kingdom, cat. 1254). The PDCs were cultured in complete DMEM/F12 media without 10 microM Y-27632 dihydrochloride for at least two passages prior to the screen. The established cell lines NCI-H1341 and […] were cultured in DMEM/F-12, HEPES (Invitrogen, cat. 11330032), 5% defined fetal bovine serum (HyClone Laboratories Inc., cat. SH30070.03), ITS premix universal culture supplement [insulin (5 microg/mL), transferrin (5 microg/mL), and selenious acid (5 ng/mL)] […]

Several values for one entry are separate records, joined by “and”; a condition that tells them apart may be missing. Equal values may be shown once.

As usually defined, the viability, T/C is the ratio of treated to control. For orientation: IC50 means the concentration that inhibits the measured activity by half.

Turning to `Cn1ncnc1C1c2n[nH]c(=O)c3cc(F)cc(c23)NC1c1ccc(F)cc1` (stereo not drawn), the IC50 was over 0.1 µM. In addition, the viability, T/C (compound 0.000316 µM) was 108% (2×) and 92.5%. For the same compound, the viability, T/C (compound 0.001 µM) was 104% and 108% and 105%. Moreover, the viability, T/C (compound 0.00316 µM) is 110% and 104% and 100%. For the same compound, the viability, T/C (compound 0.01 µM) was 109% and 104% and 101%. Also, the viability, T/C (compound 0.0316 µM) was 99.5% and 112% and 97.7%. Further, under “compound 0.1 µM”, the viability, T/C is 106% and 108% and 102%.
Regarding `NS(=O)(=O)OCC1CC(n2ccc3c(NC4CCc5ccccc54)ncnc32)CC1O` (stereo not drawn), the half-maximal inhibitory concentration (IC50) was 0.512 µM and 0.63 µM and 0.411 µM. The viability, T/C (compound 0.0316 µM) is 86.6% and 84.8% and 82.7%. The viability, T/C (compound 0.1 µM) was 82.9% and 78.3% and 70.6%. Under “compound 0.316 µM”, the viability, T/C was 65.9% and 65% and 60.3%. The viability, T/C (compound 1 µM) is 28.2% and 41.9% and 20.8%. The viability, T/C (compound 3.16 µM) is 5.17% and 8.09% and 3.13%. Besides, where the note is “compound 10 µM”, the viability, T/C was 3.31% and 4.15% and 1.12%.
With `Nc1ccccc1NC(=O)c1ccc(CNC(=O)OCc2cccnc2)cc1`, the IC50 is 5.56 µM and 7.78 µM and 6.04 µM. Besides, the viability, T/C (compound 0.0316 µM) is 105% and 107% and 108%. For the same compound, the viability, T/C (compound 0.1 µM) was 102% and 106% and 113%. In addition, the viability, T/C (compound 0.316 µM) was 106% and 102% and 111%. Also, where the note is “compound 1 µM”, the viability, T/C is 113% and 108% and 114%. Moreover, for the setting “compound 3.16 µM”, the viability, T/C was 73.9% and 96.8% and 86.7%. Further, for the setting “compound 10 µM”, the viability, T/C is 25.2% and 36.6% and 21.4%.
For `Nc1ccn(C2OC(CO)C(O)C2(F)F)c(=O)n1` (stereo not drawn), the IC50 was under 0.0316 µM. For the same compound, for the setting “compound 0.0316 µM”, the viability, T/C was 5.98% and 8.17% and 4.44%. Under “compound 0.1 µM”, the viability, T/C is 6.03% and 7.13% and 4.49%. Also, the viability, T/C (compound 0.316 µM) is 4.27% and 6.35% and 5.28%. Also, the viability, T/C (compound 1 µM) was 4.72% and 8.77% and 4.12%. Moreover, the viability, T/C (compound 3.16 µM) was 4.82% and 7.86% and 5.09%. Moreover, the viability, T/C (compound 10 µM) was 5.31% and 7.65% and 6.29%.
For `Nc1ncn(C2CC(O)C(CO)O2)c(=O)n1` (stereo not drawn), the IC50 was over 1 µM. Also, the viability, T/C (compound 0.00316 µM) is 99.4% and 101% and 104%. Further, the viability, T/C (compound 0.01 µM) was 102% and 81.5% and 104%. Where the note is “compound 0.0316 µM”, the viability, T/C is 98.7% and 88.8% and 106%. The viability, T/C (compound 0.1 µM) was 96.5% and 86% and 94.8%. The viability, T/C (compound 0.316 µM) was 81.5% and 69.4% and 93.1%. In addition, the viability, T/C (compound 1 µM) was 85.2% and 54.8% and 84.6%.
As for `Nc1ncn(C2CC(O)C(CO)S2)c(=O)n1` (stereo not drawn), the IC50 was over 0.3 µM. Besides, the viability, T/C (compound 0.000949 µM) was 109% and 99.9% and 112%. Also, the viability, T/C (compound 0.003 µM) was 103% and 94.9% and 105%. The viability, T/C (compound 0.00949 µM) is 99.4% and 94.5% and 98.6%. Further, for the setting “compound 0.03 µM”, the viability, T/C was 102% and 107% and 100%. Further, for the setting “compound 0.0949 µM”, the viability, T/C is 73.2% and 96.8% and 89%. In addition, the viability, T/C (compound 0.3 µM) is 63.7% and 75.5% and 63.9%.
`O=C(C=Cc1cccc(S(=O)(=O)Nc2ccccc2)c1)NO`: the IC50 is 5.2 µM and 6.41 µM and 5.53 µM. Moreover, the viability, T/C (compound 0.0316 µM) was 104% and 102% and 97.4%. Besides, the viability, T/C (compound 0.1 µM) was 101% and 99.7% and 102%. In addition, the viability, T/C (compound 0.316 µM) was 101% and 103% and 102%. Besides, the viability, T/C (compound 1 µM) is 101% and 102% and 112%. Besides, where the note is “compound 3.16 µM”, the viability, T/C was 75.2% and 93.4% and 85.6%. The viability, T/C (compound 10 µM) was 16.8% and 22.8% and 12.4%.
Regarding `O=C(C=Cn1cnc(-c2cc(C(F)(F)F)cc(C(F)(F)F)c2)n1)NNc1cnccn1`, the IC50 was 0.7 µM and 0.745 µM and 0.356 µM. In addition, under “compound 0.00949 µM”, the viability, T/C was 106% (2×) and 101%. For the setting “compound 0.03 µM”, the viability, T/C is 110% and 108% and 112%. Also, the viability, T/C (compound 0.0949 µM) was 109% and 107% and 105%. Besides, the viability, T/C (compound 0.3 µM) is 66.8% and 69.5% and 52.4%. Also, the viability, T/C (compound 0.949 µM) is 47.5% and 48.1% and 38.7%. Where the note is “compound 3 µM”, the viability, T/C is 20.5% and 24.1% and 16.9%.
As to `O=C(c1cc(Cc2n[nH]c(=O)c3ccccc23)ccc1F)N1CCN(C(=O)C2CC2)CC1`, the IC50 was over 10 µM. Under “compound 0.0316 µM”, the viability, T/C is 111% and 97.5% and 96.3%. The viability, T/C (compound 0.1 µM) is 104% and 99.7% and 103%. Besides, for the setting “compound 0.316 µM”, the viability, T/C is 112% and 103% and 102%. Further, the viability, T/C (compound 1 µM) was 108% and 109% and 104%. The viability, T/C (compound 3.16 µM) is 109% and 107% and 104%. Further, the viability, T/C (compound 10 µM) was 107% and 98% and 91.6%.
